From PMC7570544, “Biological Activities and ADMET-Related Properties of Novel Set of Cinnamanilides” (Molecules, 2020)
Values after ≈ are worked out from the molar mass of the structure shown.

Columns and labels:
[1] = tested on: THP1-Blue™ NF-κB cell line; assay: In vitro cell viability assay (WST-1); type: cell-based; details: Homo sapiens; THP1-Blue NF-κB cells, 24 h incubation, WST-1, mean ± SEM, n = 6; read-out: Tox IC50 ± SEM
Protocol: The cytotoxic effect of the tested compounds was specified on THP1-Blue™ NF-κB cell line (Invivogen; San Diego, CA, USA), as described previously. […] The final concentration of DMSO was 0.1% (v/v) in each well. The viability analysis was performed after 24 h incubation with the tested substances using the WST-1 Cell Proliferation Reagent kit (Roche Diagnostics, Basel, Switzerland) according to the manufacturer’s manual. […] The IC50 values were calculated by four-parameter logistic (4PL) analysis from obtained viability curves by GraphPad Prism 8.0.1 (San Diego, CA, USA) software.

[2] = tested on: methicillin-resistant Staphylococcus aureus (MRSA) SA 630; assay: In vitro antibacterial evaluation, broth microdilution MIC, MRSA isolate SA 630; type: cell-based; details: clinical isolate MRSA SA 630
[3] = physchem
[4] = tested on: methicillin-resistant Staphylococcus aureus (MRSA) 63718; assay: In vitro antibacterial evaluation, broth microdilution MIC, MRSA isolate 63718; type: cell-based; details: clinical isolate MRSA 63718
[5] = Lipophilicity determination by RP-TLC; type: physicochemical; set-up: key to RM (MeOH:H2O): RM = log(1/RF - 1), from RP-18 TLC; details: for RM (MeOH:H2O): 72:28 MeOH:H2O; for RM (pH 7.4): 72:28 MeOH:NaOAc buffer (pH 7.4)
Protocol: RM values were determined from the RP-18 TLC measurements. […] The volatiles were carefully evaporated, and the plate was developed by MeOH (100%) or MeOH: H2O-HPLC (72:28 v/v) or MeOH: NaOAc buffer, pH 7.4 (72:28 v/v). After drying, the spots were visualized under UV (λ = 365 nm). RM data were obtained from equation: RM = log(1/RF-1). Each experiment was repeated three times.

[6] = tested on: Staphylococcus aureus ATCC 29213; assay: In vitro antibacterial evaluation, broth microdilution MIC, reference strain; type: cell-based; details: Staphylococcus aureus, ATCC29213; S. aureus ATCC 29213
[7] = tested on: Mycobacterium tuberculosis H37Ra/ATCC 25177; assay: In vitro antimycobacterial evaluation; type: cell-based; details: M. tuberculosis H37Ra
Excerpt: Isoniazid (Sigma) was used as the standard.

[8] = RP-HPLC, 72:28 MeOH:H2O
[9] = tested on: NF-κB in THP1-Blue™ NF-κB cells; assay: Determination of NF-κB activity after LPS stimulation (Quanti-Blue); type: cell-based, human; details: 1 µM compound, 1 h pretreatment, LPS 1 µg/mL, 24 h, vs DMSO group
Protocol: To evaluate the anti-inflammatory potential of novel compounds, their ability to attenuate the lipopolysaccharide (LPS)-activated pro-inflammatory transcription nuclear factor (NF)-κB was measured as was described previously. Briefly, THP1-Blue™ NF-κB cells were pretreated by tested compounds dissolved in DMSO in the non-toxic concentration 1 µM for 1 h. After LPS (1 µg/mL) stimulation, the NF-κB activity was evaluated by Quanti-Blue medium (Invivogen) according to the manufacturer’s instructions. The results from 3 independent experiments performed in triplicate (n = 9) were analyzed by GraphPad Prism 8.0.1 software. The outlaying values were excluded by ROUT algorithms (Q = 5%).
Figure 1 Effect of tested compounds on activity of transcription factor NF-κB. […] Then, lipopolysaccharide (LPS) 1 µg/mL was added to trigger the NF-κB activation. The activity of NF-κB was measured 24 h after LPS stimulation using QuantiBlue™ assay. The graph represents mean ± SEM (n = 9). […] Groups were compared with the help of the one-way ANOVA test followed by Fisher’s LSD multiple comparison test. * indicates statistical significance (p < 0.05) to DMSO group; ** indicates statistical significance (p < 0.01) to DMSO group; *** indicates statistical significance (p < 0.001) to DMSO group; **** indicates statistical significance (p < 0.0001) to DMSO group. CA—cinnamic acid.

| SMILES | IC50 [1] | MIC [2] | chromatographic logD ([3]; pH 6.5) | chromatographic logD ([3]; pH 7.4) | MIC [4] | RM (MeOH:H2O) [5] | RM (pH 7.4) [5] | RM (100% MeOH) [5] | MIC [6] | MIC [7] | Logk [8] | decrease of NF-κB activity [9] | increase of NF-κB activity [9] |
| --- | --- | --- | --- | --- | --- | --- | --- | --- | --- | --- | --- | --- | --- |
| O=C(/C=C/c1ccccc1)Nc1ccc(Cl)cc1C(F)(F)F [Compound 15, (2E)-N-[4-Chloro-2-(trifluoromethyl)phenyl]-3-phenylprop-2-enamide] | > 20 µM | > 788 µM | 0.454 | 0.474 | > 788 µM | 0.5305 | 0.3219 | −0.6102 | > 788 µM | > 394 µM | 0.4113 |  |  |
| O=C(/C=C/c1ccccc1)Nc1cc(Cl)ccc1F [Compound 8, (2E)-N-(5-Chloro-2-fluorophenyl)-3-phenylprop-2-enamide] | > 20 µM | > 931 µM | 0.415 | 0.433 | > 931 µM | 0.5411 | 0.5495 | −0.4711 | 931 µM (≈ 257 µg/mL) | > 465 µM | 0.3692 |  |  |
| O=C(/C=C/c1ccccc1)Nc1ccc(Br)cc1C(F)(F)F [Compound 16, (2E)-N-[4-Bromo-2-(trifluoromethyl)phenyl]-3-phenylprop-2-enamide] | > 20 µM | > 696 µM | 0.51 | 0.532 | > 696 µM | 0.5730 | 0.4273 | −0.5624 | > 696 µM | > 348 µM | 0.4683 |  |  |
| O=C(/C=C/c1ccccc1)Nc1ccc([N+](=O)[O-])c(C(F)(F)F)c1 [Compound 18, (2E)-N-[4-Nitro-3-(trifluoromethyl)phenyl]-3-phenylprop-2-enamide] | > 20 µM | > 762 µM | 0.51 | 0.557 | > 762 µM | 0.6927 | 0.6160 | −0.4804 | > 762 µM | > 381 µM | 0.5004 | approximately 9% |  |
| O=C(/C=C/c1ccccc1)Nc1ccc(Cl)cc1Cl [Compound 4, (2E)-N-(2,4-Dichlorophenyl)-3-phenylprop-2-enamide] | > 20 µM | > 880 µM | 0.569 | 0.589 | > 880 µM | 0.6546 | 0.5495 | −0.3933 | > 880 µM |  | 0.5278 |  | 10–15% |
| O=C(/C=C/c1ccccc1)Nc1ccc(Br)c(F)c1 [Compound 9, (2E)-N-(4-Bromo-3-fluorophenyl)-3-phenylprop-2-enamide] | > 20 µM | 805 µM (≈ 258 µg/mL) | 0.541 | 0.56 | > 805 µM | 0.6797 | 0.6895 | −0.4081 | > 805 µM | > 403 µM | 0.5025 |  |  |
| O=C(/C=C/c1ccccc1)Nc1cc(F)c(F)c(F)c1 [Compound 3, (2E)-3-Phenyl-N-(3,4,5-trifluorophenyl)prop-2-enamide] | > 20 µM | > 924 µM | 0.527 | 0.549 | > 924 µM | 0.6074 | 0.5495 | −0.4206 | 462 µM (≈ 128 µg/mL) | > 462 µM | 0.4893 |  |  |
| O=C(/C=C/c1ccccc1)Nc1ccc([N+](=O)[O-])cc1C(F)(F)F [Compound 17, (2E)-N-[4-Nitro-2-(trifluoromethyl)phenyl]-3-phenylprop-2-enamide] | > 20 µM | > 762 µM | 0.399 | 0.443 | > 762 µM | 0.4998 | 0.4311 | −0.5633 | > 762 µM | > 381 µM | 0.3794 |  |  |
| O=C(/C=C/c1ccccc1)Nc1cc(Cl)c(Cl)cc1Cl [Compound 5, (2E)-3-Phenyl-N-(2,4,5-trichlorophenyl)prop-2-enamide] | > 20 µM | > 790 µM | 0.865 | 0.888 | > 790 µM | 0.9695 | 0.9832 | −0.2497 | > 790 µM |  | 0.8373 |  | 10–15% |
| CC1(C)S[C@@H]2[C@H](NC(=O)[C@H](N)c3ccccc3)C(=O)N2[C@H]1C(=O)O [AMP, ampicillin, reference compound] |  | 45.8 µM (≈ 16 µg/mL) |  |  | 45.8 µM (≈ 16 µg/mL) |  |  |  |  |  |  |  |  |
| O=C(/C=C/c1ccccc1)Nc1cc(Cl)c(Cl)c(Cl)c1 [Compound 6, (2E)-3-Phenyl-N-(3,4,5-trichlorophenyl)prop-2-enamide] | > 20 µM | > 790 µM | 0.99 | 1.01 | > 790 µM | 1.0852 | 1.1306 | −0.1870 | > 790 µM | > 395 µM | 0.9671 |  |  |
| NNC(=O)c1ccncc1 [INH, isoniazid, reference compound] |  |  |  |  |  |  |  |  |  | 36.6 µM (≈ 5.02 µg/mL) |  |  |  |
| O=C(/C=C/c1ccccc1)Nc1ccc(Br)c(Cl)c1 [Compound 11, (2E)-N-(4-Bromo-3-chlorophenyl)-3-phenylprop-2-enamide] | 6.5 ± 1 µM | 192 µM (≈ 64.6 µg/mL) | 0.691 | 0.713 | 192 µM (≈ 64.6 µg/mL) | 0.8388 | 0.8181 | −0.3376 | > 766 µM | > 383 µM | 0.6611 |  |  |
| O=C(/C=C/c1ccccc1)Nc1ccc(Br)cc1Br [Compound 7, (2E)-N-(2,4-Dibromophenyl)-3-phenylprop-2-enamide] | > 20 µM | > 677 µM | 0.652 | 0.67 | > 677 µM | 0.7331 | 0.7295 | −0.3098 | > 677 µM | > 339 µM | 0.6152 |  |  |
| O=C(/C=C/c1ccccc1)Nc1ccc(Cl)cc1Br [Compound 12, (2E)-N-(2-Bromo-4-chlorophenyl)-3-phenylprop-2-enamide] | > 20 µM | > 766 µM | 0.586 | 0.606 | > 766 µM | 0.6553 | 0.6484 | −0.4072 | > 766 µM | > 383 µM | 0.5476 |  |  |
| O=C(/C=C/c1ccccc1)Nc1c(Br)cc(C(F)(F)F)cc1Br [Compound 19, (2E)-N-[2,6-Dibromo-4-(trifluoromethyl)phenyl]-3-phenylprop-2-enamide] | > 20 µM | > 574 µM | 0.473 | 0.494 | > 574 µM | 0.5301 | 0.3733 | −0.5206 | > 574 µM | > 287 µM | 0.4321 |  |  |
